Where two headings read alike, the source gives them in different places.
Assays:
Assay type in all cases: cell-based
[1] = target: T1, proteins of HEK293T cells transiently overexpressing caspase-6 (Homo sapiens, UniProt P30519); conditions: protein HMOX2 (P30519)
T1 sequence (P30519 1-316): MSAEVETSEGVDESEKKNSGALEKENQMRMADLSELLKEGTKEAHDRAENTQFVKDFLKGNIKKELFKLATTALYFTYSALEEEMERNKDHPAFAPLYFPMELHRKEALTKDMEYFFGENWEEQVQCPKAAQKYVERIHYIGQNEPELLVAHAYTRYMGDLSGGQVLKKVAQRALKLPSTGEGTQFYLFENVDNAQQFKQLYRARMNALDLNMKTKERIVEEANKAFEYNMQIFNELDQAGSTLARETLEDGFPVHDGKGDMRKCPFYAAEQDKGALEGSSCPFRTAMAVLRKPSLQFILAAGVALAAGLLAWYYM

[2] = target: proteins of HEK293T cells transiently overexpressing caspase-6 (Homo sapiens, UniProt P36871); conditions: protein PGM1 (P36871); exp_ref Probe; analysis C6
[3] = target: proteins of HEK293T cells transiently overexpressing caspase-6 (Homo sapiens, UniProt P48643); conditions: protein CCT5 (P48643)
[4] = target: proteins of HEK293T cells transiently overexpressing caspase-6 (Homo sapiens, UniProt P55072); conditions: exp_ref Probe; protein VCP (P55072); analysis C6
[5] = target: proteins of HEK293T cells transiently overexpressing caspase-6 (Homo sapiens, UniProt P60174); conditions: exp_ref Probe; protein TPI1 (P60174); analysis C6
[6] = target: proteins of HEK293T cells transiently overexpressing caspase-6 (Homo sapiens, UniProt P78527); conditions: exp_ref Probe; protein PRKDC (P78527); analysis C6
[7] = target: proteins of HEK293T cells transiently overexpressing caspase-6 (Homo sapiens, UniProt Q14157); conditions: Probe; protein UBAP2L Q14157
[8] = target: T2, proteins of HEK293T cells transiently overexpressing caspase-6 (Homo sapiens, UniProt Q92945); conditions: protein KHSRP (Q92945)
T2 sequence (Q92945 1-711): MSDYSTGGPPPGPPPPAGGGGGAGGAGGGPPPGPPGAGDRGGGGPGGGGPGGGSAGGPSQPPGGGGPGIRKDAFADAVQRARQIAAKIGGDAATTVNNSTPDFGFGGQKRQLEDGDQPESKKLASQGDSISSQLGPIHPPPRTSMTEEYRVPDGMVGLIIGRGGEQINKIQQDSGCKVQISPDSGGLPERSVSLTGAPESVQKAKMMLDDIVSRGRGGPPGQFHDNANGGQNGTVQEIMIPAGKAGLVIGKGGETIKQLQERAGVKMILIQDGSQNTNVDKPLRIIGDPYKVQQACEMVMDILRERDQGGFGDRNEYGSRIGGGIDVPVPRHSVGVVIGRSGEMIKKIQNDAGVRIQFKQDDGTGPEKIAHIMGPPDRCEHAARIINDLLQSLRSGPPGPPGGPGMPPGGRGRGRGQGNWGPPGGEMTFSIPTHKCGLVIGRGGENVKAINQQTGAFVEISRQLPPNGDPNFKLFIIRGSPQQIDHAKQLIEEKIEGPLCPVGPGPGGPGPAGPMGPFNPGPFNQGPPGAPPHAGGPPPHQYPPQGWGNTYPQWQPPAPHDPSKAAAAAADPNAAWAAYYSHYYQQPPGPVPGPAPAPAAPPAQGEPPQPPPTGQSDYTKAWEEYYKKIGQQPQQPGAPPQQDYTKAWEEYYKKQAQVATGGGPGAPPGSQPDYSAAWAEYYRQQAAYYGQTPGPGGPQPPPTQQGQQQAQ

[9] = target: proteins of HEK293T cells transiently overexpressing caspase-6 (Homo sapiens, UniProt Q96F25); conditions: Probe; protein ALG14 Q96F25
[10] = target: T3, proteins of HEK293T cells transiently overexpressing caspase-6 (Homo sapiens, UniProt Q96F45); conditions: protein ZNF503 (Q96F45), analysis C6
T3 sequence (Q96F45 1-646): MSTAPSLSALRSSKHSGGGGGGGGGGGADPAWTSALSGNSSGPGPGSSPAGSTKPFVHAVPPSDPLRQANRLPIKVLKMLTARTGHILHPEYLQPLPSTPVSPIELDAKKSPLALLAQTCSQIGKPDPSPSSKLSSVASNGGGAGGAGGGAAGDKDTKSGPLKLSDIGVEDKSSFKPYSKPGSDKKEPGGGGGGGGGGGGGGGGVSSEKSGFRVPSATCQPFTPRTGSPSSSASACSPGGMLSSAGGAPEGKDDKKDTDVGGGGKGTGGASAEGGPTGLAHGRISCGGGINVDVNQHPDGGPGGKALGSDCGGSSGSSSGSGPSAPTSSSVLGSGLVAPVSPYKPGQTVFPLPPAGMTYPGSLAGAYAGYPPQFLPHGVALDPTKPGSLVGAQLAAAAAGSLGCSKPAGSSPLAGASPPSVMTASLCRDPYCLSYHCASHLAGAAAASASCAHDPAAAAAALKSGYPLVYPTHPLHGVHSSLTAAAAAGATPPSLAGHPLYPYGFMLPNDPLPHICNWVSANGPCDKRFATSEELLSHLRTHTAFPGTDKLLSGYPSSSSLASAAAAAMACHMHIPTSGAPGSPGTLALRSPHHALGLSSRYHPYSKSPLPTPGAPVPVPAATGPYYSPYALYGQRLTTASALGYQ

[11] = target: proteins of HEK293T cells transiently overexpressing caspase-6 (Homo sapiens, UniProt Q9H307); conditions: exp_ref Probe; protein PNN (Q9H307); analysis C6
[12] = target: proteins of HEK293T cells transiently overexpressing caspase-6 (Homo sapiens, UniProt Q9Y6C9); conditions: protein MTCH2 (Q9Y6C9); exp_ref Probe; analysis C6
Sequence of proteins of HEK293T cells transiently overexpressing caspase-6 (Homo sapiens, UniProt Q9Y6C9) (Q9Y6C9 whole entry): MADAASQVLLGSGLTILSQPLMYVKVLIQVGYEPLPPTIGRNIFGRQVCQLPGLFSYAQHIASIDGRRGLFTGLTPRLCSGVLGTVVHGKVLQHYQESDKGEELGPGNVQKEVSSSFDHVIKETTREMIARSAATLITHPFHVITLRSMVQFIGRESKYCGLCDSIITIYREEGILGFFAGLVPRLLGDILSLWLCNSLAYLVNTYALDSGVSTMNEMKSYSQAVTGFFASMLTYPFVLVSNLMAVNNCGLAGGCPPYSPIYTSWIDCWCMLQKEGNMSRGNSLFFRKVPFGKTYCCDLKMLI

Sequence of proteins of HEK293T cells transiently overexpressing caspase-6 (Homo sapiens, UniProt P48643) (P48643 whole entry): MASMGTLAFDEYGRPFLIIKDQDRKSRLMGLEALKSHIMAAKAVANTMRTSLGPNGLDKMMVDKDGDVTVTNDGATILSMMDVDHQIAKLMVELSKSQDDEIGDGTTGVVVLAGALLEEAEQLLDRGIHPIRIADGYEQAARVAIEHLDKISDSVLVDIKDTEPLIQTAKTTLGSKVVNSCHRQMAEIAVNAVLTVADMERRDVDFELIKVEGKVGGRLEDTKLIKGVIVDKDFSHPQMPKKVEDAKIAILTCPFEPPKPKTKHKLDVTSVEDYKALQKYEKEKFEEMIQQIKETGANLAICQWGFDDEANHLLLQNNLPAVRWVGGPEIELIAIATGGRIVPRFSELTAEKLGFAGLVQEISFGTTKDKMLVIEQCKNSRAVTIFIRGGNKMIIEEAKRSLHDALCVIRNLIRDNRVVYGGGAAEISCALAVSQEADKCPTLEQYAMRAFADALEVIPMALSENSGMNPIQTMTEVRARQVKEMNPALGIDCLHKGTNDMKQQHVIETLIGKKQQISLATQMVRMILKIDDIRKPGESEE
Sequence of proteins of HEK293T cells transiently overexpressing caspase-6 (Homo sapiens, UniProt P78527) (P78527 whole entry): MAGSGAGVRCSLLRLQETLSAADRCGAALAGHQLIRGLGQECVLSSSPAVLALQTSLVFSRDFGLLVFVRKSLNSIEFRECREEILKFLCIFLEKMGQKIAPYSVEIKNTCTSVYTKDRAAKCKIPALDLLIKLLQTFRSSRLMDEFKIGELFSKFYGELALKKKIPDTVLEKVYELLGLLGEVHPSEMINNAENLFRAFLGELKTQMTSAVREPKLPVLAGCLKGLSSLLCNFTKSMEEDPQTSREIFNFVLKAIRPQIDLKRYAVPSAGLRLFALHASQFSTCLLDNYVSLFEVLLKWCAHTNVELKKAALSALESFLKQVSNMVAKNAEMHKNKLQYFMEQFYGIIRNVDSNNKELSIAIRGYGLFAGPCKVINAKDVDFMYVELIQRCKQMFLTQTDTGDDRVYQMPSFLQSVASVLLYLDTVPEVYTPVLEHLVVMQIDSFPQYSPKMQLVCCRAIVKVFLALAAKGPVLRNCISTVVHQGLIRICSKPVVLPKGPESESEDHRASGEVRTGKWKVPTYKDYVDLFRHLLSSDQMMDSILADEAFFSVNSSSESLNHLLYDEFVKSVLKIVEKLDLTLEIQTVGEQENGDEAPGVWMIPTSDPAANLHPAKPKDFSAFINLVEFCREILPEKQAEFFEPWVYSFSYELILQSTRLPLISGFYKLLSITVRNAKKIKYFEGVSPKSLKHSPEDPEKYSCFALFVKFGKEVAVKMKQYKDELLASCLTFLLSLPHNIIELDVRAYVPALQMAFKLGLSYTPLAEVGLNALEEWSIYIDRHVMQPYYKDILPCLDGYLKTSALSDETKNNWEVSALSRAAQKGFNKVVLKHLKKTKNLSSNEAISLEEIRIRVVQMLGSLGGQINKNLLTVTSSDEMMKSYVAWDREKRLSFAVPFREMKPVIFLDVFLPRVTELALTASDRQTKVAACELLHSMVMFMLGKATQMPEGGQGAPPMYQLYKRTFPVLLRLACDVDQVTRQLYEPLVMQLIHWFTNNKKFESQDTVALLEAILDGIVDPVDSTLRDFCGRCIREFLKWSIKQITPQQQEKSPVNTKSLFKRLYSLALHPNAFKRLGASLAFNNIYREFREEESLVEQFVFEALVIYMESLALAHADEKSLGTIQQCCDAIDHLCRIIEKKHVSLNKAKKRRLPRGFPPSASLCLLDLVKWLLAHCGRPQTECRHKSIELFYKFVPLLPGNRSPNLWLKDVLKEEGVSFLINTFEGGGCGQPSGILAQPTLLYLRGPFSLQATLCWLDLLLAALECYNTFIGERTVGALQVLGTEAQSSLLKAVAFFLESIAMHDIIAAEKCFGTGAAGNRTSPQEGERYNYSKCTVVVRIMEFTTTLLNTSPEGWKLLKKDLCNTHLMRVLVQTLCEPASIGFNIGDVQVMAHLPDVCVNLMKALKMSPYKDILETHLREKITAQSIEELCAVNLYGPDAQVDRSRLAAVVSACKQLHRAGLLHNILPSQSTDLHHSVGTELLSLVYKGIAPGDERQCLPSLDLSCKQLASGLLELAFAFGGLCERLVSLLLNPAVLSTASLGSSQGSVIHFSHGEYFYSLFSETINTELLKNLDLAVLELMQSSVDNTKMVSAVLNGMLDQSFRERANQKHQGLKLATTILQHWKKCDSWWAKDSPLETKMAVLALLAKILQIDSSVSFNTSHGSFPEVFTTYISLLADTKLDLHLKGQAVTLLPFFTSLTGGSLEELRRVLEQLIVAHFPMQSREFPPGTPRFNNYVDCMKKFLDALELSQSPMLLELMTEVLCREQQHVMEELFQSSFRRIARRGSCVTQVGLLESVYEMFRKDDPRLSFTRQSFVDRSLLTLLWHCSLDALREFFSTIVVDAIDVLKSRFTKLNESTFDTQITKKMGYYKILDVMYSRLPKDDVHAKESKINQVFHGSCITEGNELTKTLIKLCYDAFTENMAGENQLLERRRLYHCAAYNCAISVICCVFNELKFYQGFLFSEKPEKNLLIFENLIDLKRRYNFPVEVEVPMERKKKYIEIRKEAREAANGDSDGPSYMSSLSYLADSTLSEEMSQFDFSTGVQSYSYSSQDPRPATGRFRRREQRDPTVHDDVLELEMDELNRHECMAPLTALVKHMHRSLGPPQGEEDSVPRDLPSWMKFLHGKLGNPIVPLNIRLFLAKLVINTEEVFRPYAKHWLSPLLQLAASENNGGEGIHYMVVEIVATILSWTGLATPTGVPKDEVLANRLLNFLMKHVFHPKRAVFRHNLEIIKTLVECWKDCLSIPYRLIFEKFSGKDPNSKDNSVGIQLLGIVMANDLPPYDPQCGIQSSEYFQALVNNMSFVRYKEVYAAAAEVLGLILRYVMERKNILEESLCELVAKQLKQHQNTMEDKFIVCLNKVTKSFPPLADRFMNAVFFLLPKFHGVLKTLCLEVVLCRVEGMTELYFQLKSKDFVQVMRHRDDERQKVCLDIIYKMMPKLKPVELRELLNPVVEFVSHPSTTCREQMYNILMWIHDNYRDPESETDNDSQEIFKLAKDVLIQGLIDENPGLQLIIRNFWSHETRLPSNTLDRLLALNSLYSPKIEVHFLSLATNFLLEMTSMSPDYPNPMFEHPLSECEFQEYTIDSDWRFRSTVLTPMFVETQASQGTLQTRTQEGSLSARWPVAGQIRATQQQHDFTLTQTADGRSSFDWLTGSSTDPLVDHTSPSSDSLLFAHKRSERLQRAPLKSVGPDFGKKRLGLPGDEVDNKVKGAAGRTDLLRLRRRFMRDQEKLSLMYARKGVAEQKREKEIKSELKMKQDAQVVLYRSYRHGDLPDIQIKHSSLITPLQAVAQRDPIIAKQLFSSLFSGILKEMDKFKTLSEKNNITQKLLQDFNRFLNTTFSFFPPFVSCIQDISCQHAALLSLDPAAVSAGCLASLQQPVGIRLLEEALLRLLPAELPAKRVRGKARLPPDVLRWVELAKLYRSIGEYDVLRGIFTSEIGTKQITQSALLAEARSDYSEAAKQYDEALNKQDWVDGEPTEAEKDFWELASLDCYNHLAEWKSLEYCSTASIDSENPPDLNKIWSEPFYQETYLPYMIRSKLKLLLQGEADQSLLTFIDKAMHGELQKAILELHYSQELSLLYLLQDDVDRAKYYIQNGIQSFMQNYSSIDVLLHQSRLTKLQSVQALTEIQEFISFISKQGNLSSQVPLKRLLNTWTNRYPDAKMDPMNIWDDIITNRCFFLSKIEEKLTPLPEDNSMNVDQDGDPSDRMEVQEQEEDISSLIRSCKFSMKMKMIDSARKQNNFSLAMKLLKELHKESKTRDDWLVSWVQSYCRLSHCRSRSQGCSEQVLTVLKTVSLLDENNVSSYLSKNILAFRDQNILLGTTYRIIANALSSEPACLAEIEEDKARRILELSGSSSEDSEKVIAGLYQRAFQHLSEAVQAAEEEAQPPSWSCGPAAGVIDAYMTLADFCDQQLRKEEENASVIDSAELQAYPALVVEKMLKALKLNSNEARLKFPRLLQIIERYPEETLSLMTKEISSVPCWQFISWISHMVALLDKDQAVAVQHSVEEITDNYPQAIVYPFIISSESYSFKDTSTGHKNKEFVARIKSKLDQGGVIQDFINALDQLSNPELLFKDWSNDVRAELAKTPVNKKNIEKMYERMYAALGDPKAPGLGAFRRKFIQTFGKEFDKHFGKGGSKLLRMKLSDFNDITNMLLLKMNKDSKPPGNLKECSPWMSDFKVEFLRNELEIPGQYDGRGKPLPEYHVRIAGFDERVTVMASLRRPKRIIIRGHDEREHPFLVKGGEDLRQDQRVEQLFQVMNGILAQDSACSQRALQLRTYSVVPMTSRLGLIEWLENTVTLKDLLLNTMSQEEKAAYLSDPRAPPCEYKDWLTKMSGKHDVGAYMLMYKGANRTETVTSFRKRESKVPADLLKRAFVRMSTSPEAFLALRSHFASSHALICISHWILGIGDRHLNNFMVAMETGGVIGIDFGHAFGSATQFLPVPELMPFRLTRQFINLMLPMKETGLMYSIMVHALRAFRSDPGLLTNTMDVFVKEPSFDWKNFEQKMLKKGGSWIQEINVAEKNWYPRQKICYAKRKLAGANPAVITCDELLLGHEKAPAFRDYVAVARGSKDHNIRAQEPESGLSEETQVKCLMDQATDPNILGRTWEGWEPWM

Structure (SMILES): C#CCOc1ccc([C@@H]2C[C@@H](C(=O)Nc3ccc(OC(F)(F)F)cc3)CN(S(=O)(=O)C=C)C2)cc1 (relative stereo) [13-t]
- enrich.exp.med.lin [1]: 4.772
- enrich.exp.med.log2 [1]: 2.255
- enrich.exp.med.lin ([1]; Expt Probe, analysis C6): 4.772
- enrich.exp.med.log2 ([1]; Expt Probe, analysis C6): 2.255
- enrich.exp.med ([1]; exp_ref Probe, analysis C6): 2.255
- enrich.exp.med [2]: 1.9053
- enrich.exp.med ([3]; exp_ref Probe, analysis C6): 0.7352
- enrich.exp.med.lin [3]: 1.665
- enrich.exp.med.log2 [3]: 0.7352
- enrich.exp.med [4]: -0.3231
- enrich.exp.med [5]: 0.1365
- enrich.exp.med [6]: 0.5475
- enrich.exp.med [7]: -0.84
- enrich.exp.med ([8]; exp_ref Probe, analysis C6): 0.3732
- enrich.exp.med.lin [8]: 1.295
- enrich.exp.med.log2 [8]: 0.3732
- enrich.exp.med [9]: -1.074
- enrich.exp.med.lin ([10]; Expt Probe): 59.486
- enrich.exp.med.log2 ([10]; Expt Probe): 5.894
- enrich.exp.med ([10]; exp_ref Probe): 5.894
- enrich.exp.med [11]: 0.5676
- enrich.exp.med [12]: 1.32
